Earlier results as cited in PMC9516332 (Frontiers in Oncology, 2022).
Read-outs that look alike come from different tables or passages of the source.

Assays:
Settings in all cases: cited from earlier work
[1] = biological target: panel of 255 wild-type kinases (Homo sapiens, UniProt Q16288)
[2] = biological target: panel of 255 wild-type kinases (Homo sapiens, UniProt Q7KZI7)
[3] = biological target: panel of 255 wild-type kinases (Homo sapiens, UniProt P06493)
[4] = biological target: panel of 255 wild-type kinases (Homo sapiens, UniProt Q16654)
[5] = biological target: panel of 255 wild-type kinases (Homo sapiens, UniProt P49674)
[6] = biological target: panel of 255 wild-type kinases (Homo sapiens, UniProt Q14012)
[7] = biological target: panel of 255 wild-type kinases (Homo sapiens, UniProt Q96GD4)
[8] = biological target: panel of 255 wild-type kinases (Homo sapiens, UniProt Q96SB4)
[9] = biological target: panel of 255 wild-type kinases (Homo sapiens, UniProt Q8N4C8)
[10] = biological target: panel of 255 wild-type kinases (Homo sapiens, UniProt P50750)
[11] = biological target: panel of 255 wild-type kinases (Homo sapiens, UniProt P49759)
[12] = biological target: T1, panel of 255 wild-type kinases (Homo sapiens, UniProt O14965)
T1 sequence (O14965 1-403): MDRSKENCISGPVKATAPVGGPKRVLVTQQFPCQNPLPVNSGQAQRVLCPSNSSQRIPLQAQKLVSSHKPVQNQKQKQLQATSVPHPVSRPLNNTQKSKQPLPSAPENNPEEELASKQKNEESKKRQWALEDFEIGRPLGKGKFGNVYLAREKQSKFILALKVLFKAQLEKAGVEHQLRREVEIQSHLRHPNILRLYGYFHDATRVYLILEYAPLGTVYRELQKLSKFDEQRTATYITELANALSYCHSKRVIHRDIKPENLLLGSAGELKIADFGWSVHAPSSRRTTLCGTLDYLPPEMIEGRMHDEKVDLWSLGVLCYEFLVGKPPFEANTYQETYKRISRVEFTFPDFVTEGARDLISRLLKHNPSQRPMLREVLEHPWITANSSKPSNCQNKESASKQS

[13] = biological target: panel of 255 wild-type kinases (Homo sapiens, UniProt Q15375)
[14] = biological target: panel of 255 wild-type kinases (Homo sapiens, UniProt P06241)
[15] = biological target: panel of 255 wild-type kinases (Homo sapiens, UniProt P51812)
[16] = biological target: panel of 255 wild-type kinases (Homo sapiens, UniProt O43683)
[17] = biological target: panel of 255 wild-type kinases (Homo sapiens, UniProt Q9H0K1)
[18] = biological target: panel of 255 wild-type kinases (Homo sapiens, UniProt P00533)
[19] = biological target: panel of 255 wild-type kinases (Homo sapiens, UniProt Q15418)
[20] = biological target: panel of 255 wild-type kinases (Homo sapiens, UniProt P08581)
[21] = kinase TRKC, 1 µmol/L single concentration, ref DOI: 10.1158/1535-7163.MCT-18-0877
[22] = MARK2, 1 µmol/L single concentration, ref DOI: 10.1158/1535-7163.MCT-18-0877
[23] = CDC2/CycB1 kinase assay, 1 µmol/L single concentration, ref DOI: 10.1158/1535-7163.MCT-18-0877
[24] = kinase PDHK4, 1 µmol/L single concentration, ref DOI: 10.1158/1535-7163.MCT-18-0877
[25] = kinase CK1ε, 1 µmol/L single concentration, ref DOI: 10.1158/1535-7163.MCT-18-0877
[26] = CaMK1α kinase assay, 1 µmol/L single concentration, ref DOI: 10.1158/1535-7163.MCT-18-0877
[27] = AurB kinase assay, 1 µmol/L single concentration, ref DOI: 10.1158/1535-7163.MCT-18-0877
[28] = kinase SRPK1, 1 µmol/L single concentration, ref DOI: 10.1158/1535-7163.MCT-18-0877
[29] = MINK, 1 µmol/L single concentration, ref DOI: 10.1158/1535-7163.MCT-18-0877
[30] = CDK9/CycT1 kinase assay, 1 µmol/L single concentration, ref DOI: 10.1158/1535-7163.MCT-18-0877
[31] = kinase CLK1, 1 µmol/L single concentration, ref DOI: 10.1158/1535-7163.MCT-18-0877
[32] = AurA kinase assay, 1 µmol/L single concentration, ref DOI: 10.1158/1535-7163.MCT-18-0877
[33] = AurA/TPX2 kinase assay, 1 µmol/L single concentration, ref DOI: 10.1158/1535-7163.MCT-18-0877
[34] = kinase EPHA7, 1 µmol/L single concentration, ref DOI: 10.1158/1535-7163.MCT-18-0877
[35] = kinase FYN [isoform a], 1 µmol/L single concentration, ref DOI: 10.1158/1535-7163.MCT-18-0877
[36] = kinase RSK2, 1 µmol/L single concentration, ref DOI: 10.1158/1535-7163.MCT-18-0877
[37] = BUB1/BUB3 kinase assay, 1 µmol/L single concentration, ref DOI: 10.1158/1535-7163.MCT-18-0877
[38] = kinase QIK, 1 µmol/L single concentration, ref DOI: 10.1158/1535-7163.MCT-18-0877
[39] = kinase EGFR, 1 µmol/L single concentration, ref DOI: 10.1158/1535-7163.MCT-18-0877
[40] = kinase RSK1, 1 µmol/L single concentration, ref DOI: 10.1158/1535-7163.MCT-18-0877
[41] = MET, 1 µmol/L single concentration, ref DOI: 10.1158/1535-7163.MCT-18-0877

CC#CC(=O)N1CCC[C@H]1c1nc(-c2ccc(C(=O)Nc3ccccn3)cc2)c2c(N)nccn12 [acalabrutinib]
%-inhibition at 1 µmol/L, TRKC [1, 21]: 11% | %-inhibition, MARK2 [2, 22]: -9% | %-inhibition CDC2/CycB1 [3, 23]: -0.397% | %-inhibition at 1 µmol/L, PDHK4 [4, 24]: 0.391% | %-inhibition at 1 µmol/L, CK1ε [5, 25]: -10% | %-inhibition CaMK1α [6, 26]: -4.29% | %-inhibition AurB [7, 27]: 11% | %-inhibition at 1 µmol/L, SRPK1 [8, 28]: -4.73% | %-inhibition, MINK [9, 29]: -1.13% | %-inhibition CDK9/CycT1 [10, 30]: 15% | %-inhibition at 1 µmol/L, CLK1 [11, 31]: -8% | %-inhibition AurA [12, 32]: 2.34% | %-inhibition AurA/TPX2 [12, 33]: -4.71% | %-inhibition at 1 µmol/L, EPHA7 [13, 34]: -3.54% | %-inhibition at 1 µmol/L, FYN [isoform a] [14, 35]: 6% | %-inhibition at 1 µmol/L, RSK2 [15, 36]: 0.054% | %-inhibition BUB1/BUB3 [16, 37]: 5.51% | %-inhibition at 1 µmol/L, QIK [17, 38]: -0.215% | %-inhibition at 1 µmol/L, EGFR [18, 39]: 19% | %-inhibition at 1 µmol/L, RSK1 [19, 40]: 3.57% | %-inhibition, MET [20, 41]: 4%

COc1cc(N2CCC(N3CCN(C)CC3)CC2)ccc1Nc1ncc(Cl)c(Nc2ccccc2P(C)(C)=O)n1 [brigatinib]
%-inhibition at 1 µmol/L, TRKC [1]: 53% | %-inhibition, MARK2 [2]: 96% | %-inhibition CDC2/CycB1 [3]: 61% | %-inhibition at 1 µmol/L, PDHK4 [4]: 5% | %-inhibition at 1 µmol/L, CK1ε [5]: 0.661% | %-inhibition CaMK1α [6]: 28% | %-inhibition AurB [7]: 46% | %-inhibition at 1 µmol/L, SRPK1 [8]: 4% | %-inhibition, MINK [9]: 6% | %-inhibition CDK9/CycT1 [10]: 5.35% | %-inhibition at 1 µmol/L, CLK1 [11]: 100% | %-inhibition AurA [12]: 79% | %-inhibition AurA/TPX2 [12]: 74% | %-inhibition at 1 µmol/L, EPHA7 [13]: 21% | %-inhibition at 1 µmol/L, FYN [isoform a] [14]: 69% | %-inhibition at 1 µmol/L, RSK2 [15]: 97% | %-inhibition BUB1/BUB3 [16]: 14% | %-inhibition at 1 µmol/L, QIK [17]: 100% | %-inhibition at 1 µmol/L, EGFR [18]: 97% | %-inhibition at 1 µmol/L, RSK1 [19]: 98% | %-inhibition, MET [20]: 41%

O=C(c1ccc(F)c(F)c1Nc1ccc(I)cc1F)N1CC(O)([C@@H]2CCCCN2)C1 [cobimetinib]
%-inhibition at 1 µmol/L, TRKC [1, 21]: -1.37% | %-inhibition, MARK2 [2, 22]: -6.58% | %-inhibition CDC2/CycB1 [3, 23]: -0.108% | %-inhibition at 1 µmol/L, PDHK4 [4, 24]: -1.13% | %-inhibition at 1 µmol/L, CK1ε [5, 25]: 2.44% | %-inhibition CaMK1α [6, 26]: 9% | %-inhibition AurB [7, 27]: -11% | %-inhibition at 1 µmol/L, SRPK1 [8, 28]: -11% | %-inhibition, MINK [9, 29]: -2.67% | %-inhibition CDK9/CycT1 [10, 30]: 1.36% | %-inhibition at 1 µmol/L, CLK1 [11, 31]: -0.28% | %-inhibition AurA [12, 32]: -0.696% | %-inhibition AurA/TPX2 [12, 33]: -1.88% | %-inhibition at 1 µmol/L, EPHA7 [13, 34]: 1.75% | %-inhibition at 1 µmol/L, FYN [isoform a] [14, 35]: 0.258% | %-inhibition at 1 µmol/L, RSK2 [15, 36]: 6% | %-inhibition BUB1/BUB3 [16, 37]: 6.61% | %-inhibition at 1 µmol/L, QIK [17, 38]: 2.37% | %-inhibition at 1 µmol/L, EGFR [18, 39]: 8% | %-inhibition at 1 µmol/L, RSK1 [19, 40]: 1.39% | %-inhibition, MET [20, 41]: 7%

CO[C@@H]1[C@H](N(C)C(=O)c2ccccc2)C[C@H]2O[C@]1(C)n1c3ccccc3c3c4c(c5c6ccccc6n2c5c31)C(=O)NC4 [midostaurin]
%-inhibition CDC2/CycB1 [3, 23]: 22% | %-inhibition at 1 µmol/L, PDHK4 [4, 24]: 1.09% | %-inhibition AurB [7, 27]: 86% | %-inhibition at 1 µmol/L, SRPK1 [8, 28]: 1.28% | %-inhibition, MINK [9, 29]: 88% | %-inhibition CDK9/CycT1 [10, 30]: 49% | %-inhibition AurA [12]: 100% | %-inhibition AurA/TPX2 [12]: 91% | %-inhibition at 1 µmol/L, EPHA7 [13, 34]: 19% | %-inhibition at 1 µmol/L, FYN [isoform a] [14, 35]: 78% | %-inhibition at 1 µmol/L, RSK2 [15, 36]: 99% | %-inhibition BUB1/BUB3 [16, 37]: 6.4% | %-inhibition at 1 µmol/L, EGFR [18, 39]: 69% | %-inhibition at 1 µmol/L, RSK1 [19, 40]: 98% | %-inhibition, MET [20, 41]: 45%
